Source: US10208089B2, “Modulation of complement activity” (priority 2014, dated 2019)
Starred links: 1 amine or outer side, 2 acyl side, 3 side chain; linkers in the order of their positions; H or OH if unused. Positions of bridges follow the written chain, without caps; N, C: chain ends. Non-standard residues stand in square brackets, D forms with d. Residues, ends and D or L forms follow the SMILES beside them. Ala(1H-tetrazol-5-yl) = N[C@@H](Cc1nnn[nH]1)C(=O)O; Trp(7-aza) = N[C@@H](Cc1c[nH]c2ncccc12)C(=O)O; Phe(3-Cl) = N[C@@H](Cc1cccc(Cl)c1)C(=O)O; mXylylene = c1cc(C[*:1])cc(C[*:2])c1; dPhg = N[C@@H](C(=O)O)c1ccccc1; Phg = N[C@H](C(=O)O)c1ccccc1; Tle = CC(C)(C)[C@H](N)C(=O)O; NMeS = CN[C@@H](CO)C(=O)O; Pra = C#CC[C@H](N)C(=O)O; Nva = CCC[C@H](N)C(=O)O

Molecular target: C5 (Homo sapiens, UniProt P01031)
Assay: Human hemolysis assay (RBC lysis assay using complete human sera)
Assay type: cell-based
Design: with complete human sera (Complement Technology, Tyler Tex.) and polypeptides; tissue Complement Technology, Tyler Tex; host or cells: complete human serum
[1] = 7-azatryptophan variant polypeptides of R3008, inhibition of red blood cell lysis
[2] = inhibition of lysis of antibody-sensitized sheep erythrocytes, complete human sera

Chain of C5 (P01031 19-1676): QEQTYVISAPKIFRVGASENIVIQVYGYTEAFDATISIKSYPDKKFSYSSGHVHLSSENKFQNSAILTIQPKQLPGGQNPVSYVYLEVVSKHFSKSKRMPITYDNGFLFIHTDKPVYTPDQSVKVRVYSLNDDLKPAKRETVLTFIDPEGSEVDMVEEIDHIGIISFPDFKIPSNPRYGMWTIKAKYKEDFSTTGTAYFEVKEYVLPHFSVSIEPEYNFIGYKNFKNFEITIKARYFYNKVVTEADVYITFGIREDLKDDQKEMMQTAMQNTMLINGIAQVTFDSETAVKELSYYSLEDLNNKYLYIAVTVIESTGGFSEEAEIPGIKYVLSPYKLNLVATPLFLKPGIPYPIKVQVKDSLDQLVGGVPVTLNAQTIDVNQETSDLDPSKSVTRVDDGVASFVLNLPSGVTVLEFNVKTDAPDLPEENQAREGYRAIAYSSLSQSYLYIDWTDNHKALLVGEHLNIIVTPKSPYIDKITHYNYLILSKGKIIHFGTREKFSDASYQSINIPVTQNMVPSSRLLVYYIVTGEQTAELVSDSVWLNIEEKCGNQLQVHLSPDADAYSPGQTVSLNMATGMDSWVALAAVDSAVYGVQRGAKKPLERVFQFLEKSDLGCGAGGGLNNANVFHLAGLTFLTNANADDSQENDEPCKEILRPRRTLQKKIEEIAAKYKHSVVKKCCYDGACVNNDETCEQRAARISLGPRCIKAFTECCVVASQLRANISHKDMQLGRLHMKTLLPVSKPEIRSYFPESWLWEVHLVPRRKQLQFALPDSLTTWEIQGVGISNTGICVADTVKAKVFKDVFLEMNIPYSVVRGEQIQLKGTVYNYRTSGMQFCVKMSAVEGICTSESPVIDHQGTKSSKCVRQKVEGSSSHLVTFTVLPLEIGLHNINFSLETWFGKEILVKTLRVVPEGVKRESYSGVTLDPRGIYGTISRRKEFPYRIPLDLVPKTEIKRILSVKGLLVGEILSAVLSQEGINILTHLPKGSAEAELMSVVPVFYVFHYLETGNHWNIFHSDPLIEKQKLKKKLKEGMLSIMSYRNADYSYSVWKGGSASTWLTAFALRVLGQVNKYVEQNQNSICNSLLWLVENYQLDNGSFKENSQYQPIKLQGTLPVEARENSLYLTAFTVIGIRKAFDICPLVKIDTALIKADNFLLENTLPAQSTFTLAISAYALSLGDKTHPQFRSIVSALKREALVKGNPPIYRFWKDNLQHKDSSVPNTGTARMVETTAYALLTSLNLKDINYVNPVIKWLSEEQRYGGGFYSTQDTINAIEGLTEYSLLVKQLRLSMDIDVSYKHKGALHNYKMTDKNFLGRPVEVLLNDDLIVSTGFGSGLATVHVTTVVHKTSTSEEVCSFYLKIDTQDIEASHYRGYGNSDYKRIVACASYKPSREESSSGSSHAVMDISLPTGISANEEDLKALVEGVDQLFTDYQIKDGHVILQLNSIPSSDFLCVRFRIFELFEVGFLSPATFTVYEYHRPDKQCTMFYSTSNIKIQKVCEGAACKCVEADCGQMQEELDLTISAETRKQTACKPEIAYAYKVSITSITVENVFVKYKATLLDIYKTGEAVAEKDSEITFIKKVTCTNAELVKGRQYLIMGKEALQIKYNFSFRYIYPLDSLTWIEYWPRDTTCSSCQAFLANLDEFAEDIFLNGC

CCC[C@H](NC(=O)[C@@H]1CSCc2cccc(c2)CSC[C@H](NC(=O)[C@H](CCC)NC(C)=O)C(=O)N[C@@H](c2ccccc2)C(=O)N[C@@H]([C@@H](C)O)C(=O)N[C@@H](Cc2c[nH]c3ccccc23)C(=O)N[C@@H](Cc2nnn[nH]2)C(=O)N[C@@H](Cc2ccc(O)cc2)C(=O)N(C)[C@@H](CO)C(=O)N[C@@H](Cc2c[nH]cn2)C(=O)N1)C(N)=O [Compound R3131, [mXylyl(2,10)]Ac-Nvl-C-Phg-T-W-Asp(T)-Y-(N-Me)S-H-C-Nvl-NH2] (Ac-[Nva]C[Phg]TW[Ala(1H-tetrazol-5-yl)]Y[NMeS]HC[Nva]-NH2; linker 2-10 via mXylylene)
IC50 [1]: > 100000 nM | IC50 [2]: > 100000 nM

CCC[C@H](NC(=O)[C@@H]1CSCc2cccc(c2)CSC[C@H](NC(=O)[C@H](CCC)NC(C)=O)C(=O)N[C@@H](c2ccccc2)C(=O)N[C@@H]([C@@H](C)O)C(=O)N[C@H](Cc2c[nH]c3ccccc23)C(=O)N[C@@H](CCC(=O)O)C(=O)N[C@@H](Cc2ccc(O)cc2)C(=O)N(C)[C@@H](CO)C(=O)N[C@@H](Cc2c[nH]cn2)C(=O)N1)C(N)=O [Compound R3132, [mXylyl(2,10)]Ac-Nvl-C-Phg-T-(D-Trp)-E-Y-(N-Me)S-H-C-Nvl-NH2] (Ac-[Nva]C[Phg]T[dW]EY[NMeS]HC[Nva]-NH2; linker 2-10 via mXylylene)
IC50 [1]: > 100000 nM | IC50 [2]: > 100000 nM

CCC[C@H](NC(=O)[C@@H]1CSCc2cccc(c2)CSC[C@H](NC(=O)[C@H](CCC)NC(C)=O)C(=O)N[C@@H](c2ccccc2)C(=O)N[C@H](C)C(=O)N[C@@H](Cc2c[nH]c3ncccc23)C(=O)N[C@@H](CCC(=O)O)C(=O)N[C@@H](Cc2ccc(O)cc2)C(=O)N(C)[C@@H](CO)C(=O)N[C@@H](Cc2c[nH]cn2)C(=O)N1)C(N)=O [Compound R3133, [mXylyl(2,10)]Ac-Nvl-C-Phg-(D-Ala)-azaTrp-E-Y-(N-Me)S-H-C-Nvl-NH2] (Ac-[Nva]C[Phg][dA][Trp(7-aza)]EY[NMeS]HC[Nva]-NH2; linker 2-10 via mXylylene)
IC50 [2]: > 75000 nM

CCC[C@H](NC(=O)[C@@H]1CSCc2cccc(c2)CSC[C@H](NC(=O)[C@H](CCC)NC(C)=O)C(=O)N[C@@H](c2ccccc2)C(=O)N[C@@H]([C@@H](C)O)C(=O)N[C@@H](Cc2c[nH]c3ncccc23)C(=O)N[C@@H](CCC(=O)O)C(=O)N[C@@H](Cc2cccc(Cl)c2)C(=O)N(C)[C@@H](CO)C(=O)N[C@@H](C)C(=O)N1)C(N)=O [Compound R3134, [mXylyl(2,10)]Ac-Nvl-C-Phg-T-azaTrp-E-(3-Cl-Phe)-(N-Me)S-A-C-Nvl-NH2] (Ac-[Nva]C[Phg]T[Trp(7-aza)]E[Phe(3-Cl)][NMeS]AC[Nva]-NH2; linker 2-10 via mXylylene)
IC50 [2]: > 5000 nM

CCC[C@H](NC(=O)[C@@H]1CSCc2cccc(c2)CSC[C@H](NC(=O)[C@H](CCC)NC(C)=O)C(=O)N[C@@H](c2ccccc2)C(=O)N[C@@H]([C@@H](C)O)C(=O)N[C@@H](Cc2c[nH]c3ncccc23)C(=O)N[C@@H](CCC(=O)O)C(=O)N[C@@H](Cc2ccc(O)cc2)C(=O)N(C)[C@@H](CO)C(=O)N[C@H](C)C(=O)N1)C(N)=O [Compound R3135, [mXylyl(2,10)]Ac-Nvl-C-Phg-T-azaTrp-E-Y-(N-Me)S-(D-Ala)-C-Nvl-NH2] (Ac-[Nva]C[Phg]T[Trp(7-aza)]EY[NMeS][dA]C[Nva]-NH2; linker 2-10 via mXylylene)
IC50 [2]: > 25000 nM

CC(=O)N[C@H]1CSCc2cccc(c2)CSC[C@@H](C(=O)N[C@@H](CC(=O)O)C(=O)N[C@H](C(=O)N[C@@H](Cc2ccc(O)cc2)C(=O)N[C@@H](Cc2c[nH]c3ccccc23)C(=O)N[C@@H](CCC(=O)O)C(=O)N[C@@H](Cc2ccccc2)C(N)=O)C(C)(C)C)NC(=O)[C@H](Cc2ccccc2)NC(=O)[C@H](CCCNC(=N)N)NC(=O)[C@H](CCC(=O)O)NC(=O)[C@H](C(C)C)NC1=O [Compound R3138, [mXylyl(1,6)]Ac-C-V-E-R-F-C-D-Tbg-Y-W-E-F-NH2] (Ac-CVERFCD[Tle]YWEF-NH2; linker 1-6 via mXylylene)
IC50 [2]: 87.2 nM

CC(=O)N[C@H]1CSCc2cccc(c2)CSC[C@@H](C(=O)N[C@@H](CC(=O)O)C(=O)N[C@H](C(=O)N[C@@H](Cc2ccc(O)cc2)C(=O)N[C@@H](Cc2c[nH]c3ccccc23)C(=O)N[C@@H](CCC(=O)O)C(=O)N[C@@H](Cc2ccccc2)C(N)=O)C(C)(C)C)NC(=O)[C@H](Cc2ccccc2)NC(=O)[C@H](CCCNC(=N)N)NC(=O)[C@H](CCC(=O)O)NC(=O)[C@H](C(C)(C)C)NC1=O [Compound R3139, [mXylyl(1,6)]Ac-C-Tbg-E-R-F-C-D-Tbg-Y-W-E-F-NH2] (Ac-C[Tle]ERFCD[Tle]YWEF-NH2; linker 1-6 via mXylylene)
IC50 [2]: 97.2 nM

CC(=O)N[C@H]1CSCc2cccc(c2)CSC[C@@H](C(=O)N[C@@H](CC(=O)O)C(=O)N[C@H](C(=O)N[C@@H](Cc2ccc(O)cc2)C(=O)N[C@@H](Cc2c[nH]c3ccccc23)C(=O)N[C@@H](CCC(=O)O)C(=O)N[C@@H](Cc2ccc(O)cc2)C(=O)N2CCC[C@H]2C(N)=O)C(C)C)NC(=O)[C@H](Cc2ccccc2)NC(=O)[C@H](CCCNC(=N)N)NC(=O)[C@H](CCC(=O)O)NC(=O)[C@H](C(C)C)NC1=O [Compound R3140, [mXv1v1(1,6)]Ac-C-V-E-R-F-C-D-V-Y-W-E-Y-P-NH2]
IC50 [2]: 17.9 nM

CC(=O)N[C@H]1CSCc2cccc(c2)CSC[C@@H](C(=O)N[C@@H](CC(=O)O)C(=O)N[C@H](C(=O)N[C@@H](Cc2ccc(O)cc2)C(=O)N[C@@H](Cc2c[nH]c3ccccc23)C(=O)N[C@@H](CCC(=O)O)C(=O)N[C@@H](Cc2ccccc2)C(=O)N2CCC[C@H]2C(N)=O)C(C)C)NC(=O)[C@H](Cc2ccccc2)NC(=O)[C@H](CCCNC(=N)N)NC(=O)[C@H](CCC(=O)O)NC(=O)[C@H](C(C)C)NC1=O [Compound R3141, [mXylyl(1,6)]Ac-C-V-E-R-F-C-D-V-Y-W-E-F-P-NH2] (Ac-CVERFCDVYWEFP-NH2; linker 1-6 via mXylylene)
IC50 [2]: 24.5 nM

CC(=O)N[C@H]1CSCc2cccc(c2)CSC[C@@H](C(=O)N[C@@H](CC(=O)O)C(=O)N[C@H](C(=O)N[C@@H](Cc2ccc(O)cc2)C(=O)N[C@@H](Cc2c[nH]c3ccccc23)C(=O)N[C@@H](CCC(=O)O)C(=O)N[C@@H](Cc2ccc(O)cc2)C(=O)N2CCC[C@H]2C(N)=O)C(C)(C)C)NC(=O)[C@H](Cc2ccccc2)NC(=O)[C@H](CCCNC(=N)N)NC(=O)[C@H](CCC(=O)O)NC(=O)[C@H](C(C)C)NC1=O [Compound R3143, [mXyly1(1,6)]Ac-C-V-E-R-F-C-D-Tbg-Y-W-E-Y-P-NH2] (Ac-CVERFCD[Tle]YWEYP-NH2; linker 1-6 via mXylylene)
IC50 [2]: 18.6 nM

CC(=O)N[C@H]1CSCc2cccc(c2)CSC[C@@H](C(=O)N[C@@H](CC(=O)O)C(=O)N[C@H](C(=O)N[C@@H](Cc2ccc(O)cc2)C(=O)N[C@@H](Cc2c[nH]c3ccccc23)C(=O)N[C@@H](CCC(=O)O)C(=O)N[C@@H](Cc2ccccc2)C(N)=O)C(C)C)NC(=O)[C@H](Cc2ccccc2)NC(=O)[C@H](CCCNC(=N)N)NC(=O)[C@H](CCC(=O)O)NC(=O)[C@H](C(C)(C)C)NC1=O [Compound R3146, [mXylyl(1,6)]Ac-C-Tbg-E-R-F-C-D-V-Y-W-E-F-NH2] (Ac-C[Tle]ERFCDVYWEF-NH2; linker 1-6 via mXylylene)
IC50 [2]: 107 nM

C#CC[C@H](NC(=O)[C@H](Cc1ccccc1)NC(=O)[C@H](CCC(=O)O)NC(=O)[C@H](Cc1c[nH]c2ccccc12)NC(=O)[C@H](Cc1ccc(O)cc1)NC(=O)[C@@H](NC(=O)[C@H](CC(=O)O)NC(=O)[C@@H]1CSCc2cccc(c2)CSC[C@H](NC(C)=O)C(=O)N[C@@H](C(C)C)C(=O)N[C@@H](CCC(=O)O)C(=O)N[C@@H](CCCNC(=N)N)C(=O)N[C@@H](Cc2ccccc2)C(=O)N1)C(C)C)C(N)=O [Compound R3147, [mXylyl(1,6)]Ac-C-V-E-R-F-C-D-V-Y-W-E-F-Propargyl-Gly-NH2] (Ac-CVERFCDVYWEF[Pra]-NH2; linker 1-6 via mXylylene)
IC50 [2]: 138 nM

CCC[C@H](NC(=O)[C@@H](NC(=O)[C@@H]1CCCN1C(=O)[C@H](Cc1ccc(O)cc1)NC(=O)[C@H](CCC(=O)O)NC(=O)[C@H](Cc1c[nH]c2ccccc12)NC(=O)[C@H](Cc1ccc(O)cc1)NC(=O)[C@@H](NC(=O)[C@H](CC(=O)O)NC(=O)[C@@H]1CSCc2cccc(c2)CSC[C@H](NC(C)=O)C(=O)N[C@@H](C)C(=O)N[C@@H](CCC(=O)O)C(=O)N[C@@H](CCCNC(=N)N)C(=O)N[C@@H](Cc2ccccc2)C(=O)N1)C(C)(C)C)c1ccccc1)C(N)=O [Compound R3148, [mXylyl(1,6)]Ac-C-A-E-R-F-C-D-Tbg-Y-W-E-Y-P-Phg-Nvl-NH2] (Ac-CAERFCD[Tle]YWEYP[Phg][Nva]-NH2; linker 1-6 via mXylylene)
IC50 [2]: 8.5 nM

CCC[C@H](NC(=O)[C@H](NC(=O)[C@@H]1CCCN1C(=O)[C@H](Cc1ccc(O)cc1)NC(=O)[C@H](CCC(=O)O)NC(=O)[C@H](Cc1c[nH]c2ccccc12)NC(=O)[C@H](Cc1ccc(O)cc1)NC(=O)[C@@H](NC(=O)[C@H](CC(=O)O)NC(=O)[C@@H]1CSCc2cccc(c2)CSC[C@H](NC(C)=O)C(=O)N[C@@H](C)C(=O)N[C@@H](CCC(=O)O)C(=O)N[C@@H](CCCNC(=N)N)C(=O)N[C@@H](Cc2ccccc2)C(=O)N1)C(C)(C)C)c1ccccc1)C(N)=O [Compound R3149, [mXylyl(1,6)]Ac-C-A-E-R-F-C-D-Tbg-Y-W-E-Y-P-(D-Phg)-Nvl-NH2] (Ac-CAERFCD[Tle]YWEYP[dPhg][Nva]-NH2; linker 1-6 via mXylylene)
IC50 [2]: 13.6 nM

CCC[C@H](NC(=O)[C@@H](NC(=O)[C@@H]1CCCN1C(=O)[C@H](Cc1ccc(O)cc1)NC(=O)[C@H](CCC(=O)O)NC(=O)[C@H](Cc1c[nH]c2ncccc12)NC(=O)[C@H](Cc1ccc(O)cc1)NC(=O)[C@@H](NC(=O)[C@H](CC(=O)O)NC(=O)[C@@H]1CSCc2cccc(c2)CSC[C@H](NC(C)=O)C(=O)N[C@@H](C(C)C)C(=O)N[C@@H](C)C(=O)N[C@@H](CCCNC(=N)N)C(=O)N[C@@H](Cc2ccccc2)C(=O)N1)C(C)(C)C)c1ccccc1)C(N)=O [Compound R3150, [mXylyl(1,6)]Ac-C-V-A-R-F-C-D-Tbg-Y-azaTrp-E-Y-P-Phg-Nvl-NH2] (Ac-CVARFCD[Tle]Y[Trp(7-aza)]EYP[Phg][Nva]-NH2; linker 1-6 via mXylylene)
IC50 [2]: 37 nM
